Publication PMC4266452, “Prediction of Thorough QT study results using action potential simulations based on ion channel screens” (Journal of Pharmacological and Toxicological Methods, 2014)
Where “and” joins values, the source holds several entries; their conditions need not be identical. Equal entries are not always repeated. Where two headings read alike, the source gives them in different places.

How the values were obtained:
[1] = ref Gintant (2011); cited from earlier work
[2] = target: T1, Kv4.3/KChIP2.2 (Homo sapiens, UniProt Q9UK17); assay: IonWorks Quattro Kv4.3/KChIP2.2 screen (AstraZeneca, Q); type: cell-based; details: IonWorks Quattro, −log10 of IC50 in Molar, Hill n = 1
T1 sequence (Q9UK17 1-655): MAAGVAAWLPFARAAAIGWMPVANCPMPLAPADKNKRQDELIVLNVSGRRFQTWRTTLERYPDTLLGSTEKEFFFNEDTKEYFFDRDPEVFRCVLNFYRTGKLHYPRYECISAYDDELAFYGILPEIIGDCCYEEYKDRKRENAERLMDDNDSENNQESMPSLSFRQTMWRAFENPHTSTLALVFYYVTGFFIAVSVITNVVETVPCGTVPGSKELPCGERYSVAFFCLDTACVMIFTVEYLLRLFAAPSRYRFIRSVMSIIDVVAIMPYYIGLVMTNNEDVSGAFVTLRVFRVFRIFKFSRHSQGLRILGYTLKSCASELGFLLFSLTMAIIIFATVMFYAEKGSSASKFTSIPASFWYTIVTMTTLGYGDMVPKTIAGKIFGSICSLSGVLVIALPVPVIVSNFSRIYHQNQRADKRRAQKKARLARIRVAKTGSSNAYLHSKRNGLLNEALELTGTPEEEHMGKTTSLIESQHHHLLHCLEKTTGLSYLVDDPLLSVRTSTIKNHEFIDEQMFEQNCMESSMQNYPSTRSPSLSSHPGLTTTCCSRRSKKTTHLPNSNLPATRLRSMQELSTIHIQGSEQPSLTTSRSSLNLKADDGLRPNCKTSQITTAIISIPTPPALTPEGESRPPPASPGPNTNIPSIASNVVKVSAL
T1 sequence (Q9NS61 1-270 partner): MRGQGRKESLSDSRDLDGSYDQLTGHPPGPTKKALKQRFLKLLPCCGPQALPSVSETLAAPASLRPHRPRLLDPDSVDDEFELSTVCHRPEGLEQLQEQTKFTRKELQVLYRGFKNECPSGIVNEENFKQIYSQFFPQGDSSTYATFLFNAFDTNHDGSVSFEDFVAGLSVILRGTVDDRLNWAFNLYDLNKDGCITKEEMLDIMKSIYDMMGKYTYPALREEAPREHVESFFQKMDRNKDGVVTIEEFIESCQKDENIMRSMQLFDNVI

[3] = Plasma concentration (Cmax) during the TQT study, total and calculated free; type: in vivo, human
[4] = target: KCNQ1/MinK (Homo sapiens, UniProt P51787); assay: IonWorks Quattro KCNQ1/MinK screen (AstraZeneca, Q); details: −log10 of IC50 in Molar
KCNQ1/MinK, sequence (P51787 whole entry): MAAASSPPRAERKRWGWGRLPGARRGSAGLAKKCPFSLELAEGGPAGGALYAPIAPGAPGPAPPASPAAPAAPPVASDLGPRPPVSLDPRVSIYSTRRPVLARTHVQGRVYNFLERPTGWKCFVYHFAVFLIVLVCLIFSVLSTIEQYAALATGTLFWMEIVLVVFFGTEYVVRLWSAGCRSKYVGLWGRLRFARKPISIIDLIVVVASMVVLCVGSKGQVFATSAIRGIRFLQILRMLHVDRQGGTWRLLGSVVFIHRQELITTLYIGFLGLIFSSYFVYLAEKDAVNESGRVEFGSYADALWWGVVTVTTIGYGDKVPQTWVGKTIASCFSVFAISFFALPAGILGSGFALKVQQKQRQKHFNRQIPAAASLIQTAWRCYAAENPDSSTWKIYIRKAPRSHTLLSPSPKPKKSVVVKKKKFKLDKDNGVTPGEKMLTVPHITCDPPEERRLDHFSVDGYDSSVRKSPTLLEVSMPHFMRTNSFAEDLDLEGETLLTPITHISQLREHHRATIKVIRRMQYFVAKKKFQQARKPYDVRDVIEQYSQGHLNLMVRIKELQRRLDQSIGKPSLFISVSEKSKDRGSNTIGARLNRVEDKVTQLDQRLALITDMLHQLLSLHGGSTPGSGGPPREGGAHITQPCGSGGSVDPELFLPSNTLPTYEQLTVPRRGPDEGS

[5] = cited from earlier work
[6] = test system: QT interval on the body surface ECG; details: cited from earlier work
[7] = target: T2, CaV1.2 (Homo sapiens, UniProt Q13936); assay: IonWorks Quattro CaV1.2 screen (AstraZeneca, Q)
[8] = target: hERG (Homo sapiens, UniProt Q12809); assay: IonWorks Quattro hERG screen (AstraZeneca, Q)
hERG, sequence (Q12809 whole entry): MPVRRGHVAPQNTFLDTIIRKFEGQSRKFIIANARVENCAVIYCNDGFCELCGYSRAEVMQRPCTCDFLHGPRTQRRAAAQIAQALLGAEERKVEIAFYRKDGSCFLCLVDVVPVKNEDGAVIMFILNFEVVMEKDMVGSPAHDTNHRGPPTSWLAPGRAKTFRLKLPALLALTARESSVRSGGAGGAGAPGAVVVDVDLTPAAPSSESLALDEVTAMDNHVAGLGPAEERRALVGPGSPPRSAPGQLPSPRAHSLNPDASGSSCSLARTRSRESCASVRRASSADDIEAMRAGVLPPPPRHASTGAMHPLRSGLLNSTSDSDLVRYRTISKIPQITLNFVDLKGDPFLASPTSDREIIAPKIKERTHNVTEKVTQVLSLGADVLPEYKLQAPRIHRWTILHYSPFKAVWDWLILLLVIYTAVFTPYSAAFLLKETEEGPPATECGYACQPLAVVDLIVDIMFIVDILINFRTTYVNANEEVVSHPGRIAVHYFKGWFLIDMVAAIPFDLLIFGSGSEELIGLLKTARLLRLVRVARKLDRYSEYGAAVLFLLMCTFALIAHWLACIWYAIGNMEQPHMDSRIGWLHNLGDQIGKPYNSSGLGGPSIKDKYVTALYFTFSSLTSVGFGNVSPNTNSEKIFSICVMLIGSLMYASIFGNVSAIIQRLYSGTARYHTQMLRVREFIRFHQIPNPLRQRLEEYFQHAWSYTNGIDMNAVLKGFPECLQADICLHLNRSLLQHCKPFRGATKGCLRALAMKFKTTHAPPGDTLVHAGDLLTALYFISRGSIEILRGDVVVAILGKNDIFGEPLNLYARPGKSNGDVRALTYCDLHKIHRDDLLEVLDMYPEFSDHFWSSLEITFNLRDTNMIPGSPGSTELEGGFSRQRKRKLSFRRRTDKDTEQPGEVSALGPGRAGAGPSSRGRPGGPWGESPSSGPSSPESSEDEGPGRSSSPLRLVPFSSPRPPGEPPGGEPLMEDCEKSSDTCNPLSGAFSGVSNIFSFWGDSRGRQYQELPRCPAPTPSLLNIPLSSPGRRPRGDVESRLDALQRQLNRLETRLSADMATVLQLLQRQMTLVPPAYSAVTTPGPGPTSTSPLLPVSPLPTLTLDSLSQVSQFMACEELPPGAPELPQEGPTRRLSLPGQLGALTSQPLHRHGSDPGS

[9] = target: T3, NaV1.5 (Homo sapiens, UniProt Q14524); assay: IonWorks Quattro NaV1.5 screen (AstraZeneca, Q)
T3 sequence (Q14524 whole entry): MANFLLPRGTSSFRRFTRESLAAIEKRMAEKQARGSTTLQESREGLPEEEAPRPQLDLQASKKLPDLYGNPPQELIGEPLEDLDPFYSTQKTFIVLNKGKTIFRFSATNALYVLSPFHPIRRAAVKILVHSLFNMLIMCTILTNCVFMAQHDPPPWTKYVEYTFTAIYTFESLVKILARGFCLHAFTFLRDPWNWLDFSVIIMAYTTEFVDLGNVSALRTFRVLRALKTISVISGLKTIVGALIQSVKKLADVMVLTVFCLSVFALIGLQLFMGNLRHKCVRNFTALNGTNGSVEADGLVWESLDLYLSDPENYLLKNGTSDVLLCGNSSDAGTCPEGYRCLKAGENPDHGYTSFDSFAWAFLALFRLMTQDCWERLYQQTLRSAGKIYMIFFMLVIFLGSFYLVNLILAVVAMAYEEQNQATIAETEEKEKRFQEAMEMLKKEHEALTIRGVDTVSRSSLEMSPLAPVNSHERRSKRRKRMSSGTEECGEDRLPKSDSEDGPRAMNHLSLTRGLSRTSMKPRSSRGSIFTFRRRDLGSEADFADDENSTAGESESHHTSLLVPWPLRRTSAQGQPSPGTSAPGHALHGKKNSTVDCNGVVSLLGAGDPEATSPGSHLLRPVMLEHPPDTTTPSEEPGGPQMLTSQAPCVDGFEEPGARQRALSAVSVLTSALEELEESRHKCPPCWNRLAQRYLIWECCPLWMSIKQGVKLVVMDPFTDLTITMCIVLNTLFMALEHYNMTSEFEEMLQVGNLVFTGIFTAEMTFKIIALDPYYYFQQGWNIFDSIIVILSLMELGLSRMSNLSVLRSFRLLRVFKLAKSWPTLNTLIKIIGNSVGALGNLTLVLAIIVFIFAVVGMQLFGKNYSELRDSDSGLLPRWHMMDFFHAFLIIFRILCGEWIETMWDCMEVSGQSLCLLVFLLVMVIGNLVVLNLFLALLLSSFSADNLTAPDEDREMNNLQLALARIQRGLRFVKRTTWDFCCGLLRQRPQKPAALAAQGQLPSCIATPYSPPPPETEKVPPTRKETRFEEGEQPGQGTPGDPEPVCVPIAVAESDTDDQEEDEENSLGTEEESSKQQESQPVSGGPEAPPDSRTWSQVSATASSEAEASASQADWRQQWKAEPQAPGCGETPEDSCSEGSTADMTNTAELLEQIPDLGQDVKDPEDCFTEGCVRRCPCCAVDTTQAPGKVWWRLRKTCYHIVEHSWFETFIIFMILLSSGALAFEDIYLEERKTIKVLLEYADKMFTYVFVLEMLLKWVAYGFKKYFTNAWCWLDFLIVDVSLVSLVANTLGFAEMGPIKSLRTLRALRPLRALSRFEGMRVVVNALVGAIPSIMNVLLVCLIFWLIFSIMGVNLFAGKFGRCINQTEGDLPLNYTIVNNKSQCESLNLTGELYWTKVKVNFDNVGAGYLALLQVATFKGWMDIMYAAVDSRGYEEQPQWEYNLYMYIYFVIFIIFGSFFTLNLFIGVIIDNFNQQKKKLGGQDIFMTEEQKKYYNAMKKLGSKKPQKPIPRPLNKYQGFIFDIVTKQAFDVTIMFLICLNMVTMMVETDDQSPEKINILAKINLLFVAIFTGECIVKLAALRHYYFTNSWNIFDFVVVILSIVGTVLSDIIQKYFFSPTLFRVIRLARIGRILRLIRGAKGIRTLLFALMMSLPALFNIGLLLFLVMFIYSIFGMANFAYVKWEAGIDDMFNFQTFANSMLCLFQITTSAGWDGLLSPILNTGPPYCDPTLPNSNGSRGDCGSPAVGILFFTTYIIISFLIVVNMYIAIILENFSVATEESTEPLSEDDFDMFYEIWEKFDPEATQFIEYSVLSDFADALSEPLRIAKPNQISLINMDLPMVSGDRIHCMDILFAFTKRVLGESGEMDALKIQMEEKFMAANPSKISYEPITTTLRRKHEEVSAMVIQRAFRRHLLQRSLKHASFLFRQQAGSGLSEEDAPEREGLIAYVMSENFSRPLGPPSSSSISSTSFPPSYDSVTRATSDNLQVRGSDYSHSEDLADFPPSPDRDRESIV

[10] = target: T3, NaV1.5; assay: Second IonWorks Quattro NaV1.5 screen (GSK, Q2)
[11] = target: T2, CaV1.2; assay: IonWorks Barracuda CaV1.2 screen (GSK, B)
[12] = Cmax high, calculated from ng/mL and molecular weight
[13] = Cmax high, calculated with PPB and molecular weight
[14] = Cmax low, calculated from ng/mL and molecular weight
[15] = Hill n = 1, 0.0 = pIC50 ≤ 0 fitted
[16] = 40 mg, ref FDA product label review
[17] = IonWorks Quattro, −log10 of IC50 in Molar, Hill n = 1, 0.0 = pIC50 ≤ 0 fitted
[18] = second independent Quattro screening, −log10 of IC50 in Molar, 0.0 = pIC50 ≤ 0 fitted
[19] = Cmax low, calculated with PPB and molecular weight

| Kv4.3 pIC50 (Q) ([2]; 0.0 = pIC50 ≤ 0 fitted) | Free plasma concentration ([3]; Cmax high) [nM] | Cmax TOTAL [3, 12] [nM] | Cmax FREE ([3]; Cmax high, calculated with PPB) [ng/mL] | Cmax FREE [3, 13] [nM] | Free plasma concentration ([3]; Cmax low) [nM] | Cmax TOTAL [3, 14] [nM] | Cmax FREE ([3]; Cmax low, calculated with PPB) [ng/mL] | KCNQ1 pIC50 (Q) [4, 15] | Cmax FREE [3, 19] [nM] | SMILES | PPB (percent plasma binding) [1] | Cmax TOTAL ([5]; Cmax high, ref Gintant (2011)) [ng/mL] | Cmax TOTAL ([5]; Cmax low, ref Gintant (2011)) [ng/mL] | CaV1.2 pIC50 (Q) [7, 17] | NaV1.5 pIC50 (Q) [9, 17] | also measured |
| --- | --- | --- | --- | --- | --- | --- | --- | --- | --- | --- | --- | --- | --- | --- | --- | --- |
| – | 37525.9 | 37525.9 | 4324.5 | 37525.9 | 28193.2 | – | 3249 | – | – | Nc1nnc(-c2cccc(Cl)c2Cl)c(N)n1 [Lamotrigine] | 55% PPB | 9610 | 7220 | – | 4.0 | CaV1.2 pIC50 (Q) [7]: 2.8; NaV1.5 pIC50 (Q2) [10, 18]: 4.4; CaV1.2 pIC50 (B) [11]: 2.9 |
| 4.2 | 71.54 | 264.953 | 30.51 | 71.5374 | 22.16 | 82.0652 | 9.45 | – | 22.1576 | Cc1nc2n(c(=O)c1CCN1CCC(c3noc4cc(F)ccc34)CC1)CCCC2O (stereo not drawn) [Paliperidone] | 73% PPB | 113 | 35 | – | 4.6 | CaV1.2 pIC50 (Q) [7]: 3.4; NaV1.5 pIC50 (Q2) [10, 18]: 3.8; CaV1.2 pIC50 (B) [11]: 3.0 |
| 3.5 | 14.53 | 290.598 | 7.2 | 14.530 | 4.288 | 85.767 | 2.125 | 3.6 | 4.288 | C[C@H](Cc1cc2c(c(C(N)=O)c1)N(CCCO)CC2)NCCOc1ccccc1OCC(F)(F)F [Silodosin] | 95% PPB | 144 | 42.5 | 3.1 | 4.2 | IC50 at 3 min ([8]; human, CHO K1 cells stably transfected with human ERG): 0.0251 mM |
| – | – | – | 3827.6 | 9397.17 | – | – | 348.6 | 3.5 | 855.851 | N[C@@H](CC(=O)N1CCn2c(nnc2C(F)(F)F)C1)Cc1cc(F)c(F)cc1F [Sitagliptin] | 30% PPB | 5468 | 498 | 1.0 | – | NaV1.5 pIC50 (Q) [9]: 3.1; TQT study outcome in words (COMMENTS) ([6]; ref Gintant (2011)): Minimal effects at supratherapeutic concentrations; NaV1.5 pIC50 (Q2) [10]: 3.2 |
| 4.3 | 7.51 | 150.207 | 4.000 | 7.510 | – | – | – | – | – | CCN(CC)CCNC(=O)c1c(C)[nH]c(/C=C2\C(=O)Nc3ccc(F)cc32)c1C [Sunitinib] | – | 80.000 | – | 4.1 | – | CaV1.2 pIC50 (B) ([11]; IonWorks Barracuda, −log10 of IC50 in Molar, Hill n = 1, 0.0 = pIC50 ≤ 0 fitted): 3.7 |

The remaining lines, values behind:

| SMILES | Kv4.3 pIC50 (Q) ([2]; 0.0 = pIC50 ≤ 0 fitted) | Free plasma concentration ([3]; Cmax high) [nM] | Cmax TOTAL [3, 12] [nM] | Cmax FREE ([3]; Cmax high, calculated with PPB) [ng/mL] | Cmax FREE [3, 13] [nM] | Free plasma concentration ([3]; Cmax low) [nM] | Cmax TOTAL [3, 14] [nM] | Cmax FREE ([3]; Cmax low, calculated with PPB) [ng/mL] | KCNQ1 pIC50 (Q) [4, 15] | Cmax FREE [3, 19] [nM] | PPB (percent plasma binding) [1] | Cmax TOTAL ([5]; Cmax high, ref Gintant (2011)) [ng/mL] | Cmax TOTAL ([5]; Cmax low, ref Gintant (2011)) [ng/mL] | CaV1.2 pIC50 (Q) [7, 17] | NaV1.5 pIC50 (Q) [9, 17] | also measured |
| --- | --- | --- | --- | --- | --- | --- | --- | --- | --- | --- | --- | --- | --- | --- | --- | --- |
| COc1cc2nc(N(C)CCCNC(=O)C3CCCO3)nc(N)c2cc1OC (stereo not drawn) [Alfuzosin] | 3.0 | 7.739 | 77.39 | 4.05 | 7.74 | 1.529 | 15.29 | 0.80 | 3.9 | – | 90% ppb | 40.5 | 8 | – | – | estimated TQT concentration (free plasma) ([3]; largest dose in the TQT study): < 10^–2 μM; QTc change, individual correction [6, 16]: 4.3 ms; QTc change, population correction [6, 16]: 4.2 ms |
| C[C@H]1CN(C[C@H](Cc2ccccc2)C(=O)NCC(=O)O)CC[C@@]1(C)c1cccc(O)c1 [Alvimopan] | – | – | – | – | – | – | – | – | 4.3 | – | 70% | – | – | 5.3 | 3.6 | IC50 [8]: 63.1 mM; Cmax FREE ([3]; 12mg Capsule): 2.97 ng/mL and 6.996 nM; Cmax TOTAL ([3]; 12mg Capsule): 23.3199 nM; Free plasma concentration ([3]; 12mg Capsule): 6.996 nM; Cmax FREE ([3]; 24 extrapolate): 5.94 ng/mL and 13.9919 nM; Cmax TOTAL ([3]; 24 extrapolate): 19.8 ng/mL and 46.6398 nM; Free plasma concentration ([3]; 24 extrapolate): 13.99 nM; Cmax TOTAL ([5]; 12mg Capsule, ref Gintant (2011)): 9.9 ng/mL |
| O=C(O)c1ccc(-n2nc(-c3ccccc3O)nc2-c2ccccc2O)cc1 [Deferasirox] | – | – | – | – | – | – | – | – | – | – | 99.5% | – | – | 3.0 | 4.1 | Cmax FREE ([3]; Cmax 40mg/kg): 995 nM; Cmax TOTAL ([3]; Cmax 40mg/kg): 199000 nM; Free plasma concentration ([3]; Cmax 40mg/kg): 995 nM; Cmax TOTAL ([5]; Cmax TQT, 40mg/kg, comes from docs, ref Gintant (2011)): 199 comes from docs for Cmax uM; NaV1.5 pIC50 (Q2) [10, 18]: 3.3 |
| Cc1cc(C#N)cc(C)c1Oc1nc(Nc2ccc(C#N)cc2)nc(N)c1Br [Etravirine] | 2.5 | – | – | 1.322 | 3.037 | – | – | 0.921 | 2.9 | 2.116 | 99.9% PPB | 1322 | 921 | – | – | mean Cmax ([5]; supratherapeutic / highest dose of the TQT study, ref Gintant (2011)): 1378 ng/mL; QTc change (QTcF) ([6]; TQT study, highest dose, ref Gintant (2011)): -5.70 ms; QT shortening in the TQT study ([6]; range over the three drugs, ref Gintant (2011)): 2 to 7 ms; TQT study outcome in words (COMMENTS) ([6]; ref Gintant (2011)): QT shortening |
| CO[C@H]1C[C@@H]2CC[C@@H](C)[C@@](O)(O2)C(=O)C(=O)N2CCCC[C@H]2C(=O)O[C@H]([C@H](C)C[C@@H]2CC[C@@H](OCCO)[C@H](OC)C2)CC(=O)[C@H](C)/C=C(\C)[C@@H](O)[C@@H](OC)C(=O)[C@H](C)C[C@H](C)/C=C/C=C/C=C/1C [Everolimus] | 2.0 | – | – | – | – | – | – | – | 4.0 | – | 74% | – | – | – | – | Cmax FREE ([3]; Cmax 50mg/kg): 65.26 ng/mL; Cmax TOTAL ([3]; Cmax 50mg/kg): 261.943 nM; NaV1.5 pIC50 (Q) [9]: 3.2; Cmax TOTAL ([5]; Cmax 50mg/kg, ref http://journals.lww.com/jto/pages/articleviewer.aspx?year=2011&issue=12000&article=00023&type=abstract Table 6): 251 ng/mL; NaV1.5 pIC50 (Q2) [10]: 3.7 |
| Cc1cn([C@@H]2C[C@@H](O)[C@H](CO)O2)c(=O)[nH]c1=O [Telbivudine] | – | – | 27246.8 | 6382.2 | 26347.7 | – | 9082.28 | 2127.4 | 3.6 | 8782.56 | 3.3% | 6600 | 2200 | – | – | IC50 [8]: 5.01 mM; NaV1.5 pIC50 (Q) [9]: 2.5 |
| Cc1ccc(O)c([C@H](CCN(C(C)C)C(C)C)c2ccccc2)c1 [Tolterodine] | – | 1.343 | 36.307 | 0.703 | 1.343 | 0.6434 | 17.389 | 0.337 | – | 0.643 | 96.30% | 19.00 | 9.10 | – | – | Kv4.3 pIC50 (Q) ([2]; […]): 4.9; KCNQ1 pIC50 (Q) ([4]; Hill n = 1, […]): 4.1; CaV1.2 pIC50 (B) [11]: 4.6 |
